Some results are limits rather than exact numbers.

For this assay, the target named is T1, ALDH2 (Homo sapiens, UniProt P05091).
T1 sequence (P05091 18-517): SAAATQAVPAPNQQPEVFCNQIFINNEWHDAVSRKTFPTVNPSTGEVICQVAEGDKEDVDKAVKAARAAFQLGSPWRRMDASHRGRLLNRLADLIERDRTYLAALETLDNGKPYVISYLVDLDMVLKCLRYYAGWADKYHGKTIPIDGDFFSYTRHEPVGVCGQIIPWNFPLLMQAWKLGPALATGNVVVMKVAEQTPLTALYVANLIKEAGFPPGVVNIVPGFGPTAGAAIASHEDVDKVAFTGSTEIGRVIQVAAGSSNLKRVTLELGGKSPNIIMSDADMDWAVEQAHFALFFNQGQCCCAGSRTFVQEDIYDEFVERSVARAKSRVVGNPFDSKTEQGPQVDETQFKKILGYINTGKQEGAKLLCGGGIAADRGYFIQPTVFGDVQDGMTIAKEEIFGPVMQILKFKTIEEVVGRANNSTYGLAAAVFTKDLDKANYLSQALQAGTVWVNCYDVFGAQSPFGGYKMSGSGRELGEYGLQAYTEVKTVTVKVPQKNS
The assay is described as follows: Selectivity biochemical assay, NAD(P)H-Glo Detection System. How it is done: Materials: ALDH2 was purchased from Abnova. Tris(hydroxymethyl)aminomethane (Tris) was purchased from MP Biomedicals. TCEP, ethylenediaminetetraacetic acid (EDTA), propionaldehyde, DMSO and Tween-20 were purchased from Sigma. Nicotinamide adenine dinucleotide (NAD) was obtained from Abcam. The NAD(P)H-Glo™ Detection System was purchased from Promega. White, non-binding surface, 384 well plates were supplied by Corning (#3574).
Method: Inhibition of ALDH1A3 was assessed using the NAD(P)H-Glo™ Detection System (Cat. No. G9062) from Promega. This assay detects the production of NADH from NAD by ALDH1A3 via the coupled enzymatic conversion of a proluciferin reductase substrate to generate a luminescent signal. Inhibition of ALDH1A3 by small molecule inhibitors will result in reduction or abrogation of luminescence signal increase above background. Inhibition of ALDH1A1, ALDH1A2 and ALDH2 (selectivity assays) were assessed using the same assay.
Compounds were dosed into Corning 384 well assay plates using an Echo acoustic dispenser to give 10 point curves in a 3-fold dilution series. Compounds were dispensed from a 20 mM DMSO stock and initially screened at a top concentration of 20 μM (ALDH1A3) or 250 μM (ALDH1A1, ALDH1A2 & ALDH2). Enzyme was added to the plate in a 5 μL volume, according to the final concentrations in table 1 below, and pre-incubated with compound for 30 minutes at room temperature before the addition of 5 μL of the substrate (propionaldehyde) and cofactor (NAD), to effect final concentrations equal to the Km as shown in Table 1. The assay buffer used consisted of 40 mM Tris for 1A1 (pH 7.6), 1A2 (pH 7.6) and 1A3 (pH 9.0) and 10 mM Tris for ALDH2 (pH 8.0) supplemented with 1 mM TCEP, 0.01% Tween-20, 0.1 mM EDTA. The reaction mix was incubated at 26° C. on a shaking incubator for 30 minutes before being stopped by the addition of 10 μL of the Promega detection reagent and 100×IC50 of inhibitors of the respective isoforms. After stopping the reaction the plate was incubated for 60 minutes at room temperature and the luminescence signal read on a PheraStar FS microplate reader (BMG Labtech) and resulting IC50 values were calculated using Dotmatics software.
Enzyme, substrate and cofactor concentrations were selected to ensure the reaction ran under initial velocity conditions.
For `O=C1CSc2cc(OCCN3CCCC3c3ccccn3)ccc2N1` (centres unmarked) [ALDHI-2027, 7-[2-[2-(2-pyridyl)pyrrolidin-1-yl]ethoxy]-4H-1,4-benzothiazin-3-one], the IC50 is at least 100 µM.
In the case of `Cc1noc(-c2ccccc2C(=O)Nc2ccc3c(c2)CCC(=O)N3)n1` [ALDHI-1008, 2-(3-methyl-1,2,4-oxadiazol-5-yl)-N-(2-oxo-1,2,3,4-tetrahydroquinolin-6-yl)benzamide] it was at least 100 µM; in that of `O=C1CCc2cc(NC(=O)c3ncsc3-c3cccc(F)c3)ccc2N1` [ALDHI-1014, 5-(3-fluorophenyl)-N-(2-oxo-3,4-dihydro-1H-quinolin-6-yl)thiazole-4-carboxamide], at least 100 µM.
In the case of `CN(C)c1nc(-c2cccc(F)c2)c(C(=O)Nc2ccc3c(c2)CCC(=O)N3)s1` [ALDHI-1002, 2-(dimethylamino)-4-(3-fluorophenyl)-N-(2-oxo-3,4-dihydro-1H-quinolin-6-yl)thiazole-5-carboxamide] it was at least 100 µM; in that of `O=C1CCCc2cc(OCCN3CCCC3c3cccc(F)c3)ccc2N1` (centres unmarked) [ALDHI-2020, 7-[2-[2-(3-fluorophenyl)pyrrolidin-1-yl]ethoxy]-1,3,4,5-tetrahydro-1-benzazepin-2-one], at least 100 µM; in that of `O=C1CCc2cc(OCCn3nccc3-c3cccc(F)c3)ccc2N1` [ALDHI-2023, 6-[2-[5-(3-fluorophenyl)pyrazol-1-yl]ethoxy]-3,4-dihydro-1H-quinolin-2-one], at least 100 µM.
The same measure for `CN(CCOc1ccc2c(c1)CCC(=O)N2)C(=O)c1cccnc1` [ALDHI-3013, N-methyl-N-[2-[(2-oxo-3,4-dihydro-1H-quinolin-6-yl)oxy]ethyl]pyridine-3-carboxamide]: at least 100 µM; for `CC1(c2cccc(F)c2)CCCN1CCOc1ccc2c(c1)CCC(=O)N2` (centres unmarked) [ALDHI-2037, 6-[2-[2-(3-fluorophenyl)-2-methyl-pyrrolidin-1-yl]ethoxy]-3,4-dihydro-1H-quinolin-2-one]: at least 100 µM; for `O=C1CCc2cc(NC(=O)c3ccccc3-c3cccc(F)c3)ccc2N1` [ALDHI-1007, 3′-fluoro-N-(2-oxo-1,2,3,4-tetrahydroquinolin-6-yl)-[1,1′-biphenyl]-2-carboxamide]: at least 100 µM.
As to `O=C1CCc2cc(OCCN3CCCC3c3cc(F)cc(F)c3)ccc2N1` (centres unmarked) [ALDHI-2032, 6-[2-[2-(3,5-difluorophenyl)pyrrolidin-1-yl]ethoxy]-3,4-dihydro-1H-quinolin-2-one], the half-inhibitory concentration (IC50) was at least 100 µM.
In the case of `O=C1COc2cc(NC(=O)c3scnc3-c3cccc(F)c3)ccc2N1` [ALDHI-1016, 4-(3-fluorophenyl)-N-(3-oxo-4H-1,4-benzoxazin-7-yl)thiazole-5-carboxamide] it was at least 100 µM; in that of `O=C1CCc2cc(OCCN3CCCC3c3ccc(F)c(F)c3)ccc2N1` (centres unmarked) [ALDHI-2039, 6-[2-[2-(3,4-difluorophenyl)pyrrolidin-1-yl]ethoxy]-3,4-dihydro-1H-quinolin-2-one], at least 100 µM.
The same measure for `O=C1CCc2cc(OCCN3CC(O)CC3c3cccc(F)c3)ccc2N1` (mixture of isomers) [ALDHI-2035, 6-[2-[2-(3-fluorophenyl)-4-hydroxy-pyrrolidin-1-yl]ethoxy]-3,4-dihydro-1H-quinolin-2-one]: at least 100 µM; for `O=C1CCc2cc(NC(=O)c3scnc3-c3ccccc3Cl)ccc2N1` [ALDHI-1012, 4-(2-chlorophenyl)-N-(2-oxo-3,4-dihydro-1H-quinolin-6-yl)thiazole-5-carboxamide]: at least 100 µM; for `O=C1CCc2cc(NC(=O)c3c[nH]nc3-c3cccc(F)c3)ccc2N1` [ALDHI-1006, 3-(3-fluorophenyl)-N-(2-oxo-1,2,3,4-tetrahydroquinolin-6-yl)-1H-pyrazole-4-carboxamide]: 10 to 100 µM.
In the case of `O=C1CCc2cc(OCCN(CCO)Cc3cccnc3)ccc2N1` [ALDHI-3005, 6-[2-[2-hydroxyethyl(3-pyridylmethyl)amino]ethoxy]-3,4-dihydro-1H-quinolin-2-one] it was at least 100 µM; in that of `CCn1cc(C2CCCN2CCOc2ccc3c(c2)CCC(=O)N3)cn1` (centres unmarked) [ALDHI-2016, 6-[2-[2-(1-ethylpyrazol-4-yl)pyrrolidin-1-yl]ethoxy]-3,4-dihydro-1H-quinolin-2-one], at least 100 µM.
As for `O=C1CCc2cc(OCCN3CCC[C@H]3c3cccc(F)c3)ccc2N1` [ALDHI-2018, 6-[2-[(2S)-2-(3-fluorophenyl)pyrrolidin-1-yl]ethoxy]-3,4-dihydro-1H-quinolin-2-one], the half-maximal inhibitory concentration (IC50) is at least 100 µM.
In the case of `CC1Cc2cc(OCCN3CCCC3c3cccc(F)c3)ccc2NC1=O` (centres unmarked) [ALDHI-2048, 6-[2-[2-(3-fluorophenyl)pyrrolidin-1-yl]ethoxy]-3-methyl-3,4-dihydro-1H-quinolin-2-one] it was at least 100 µM.
As to `Cc1cccc(-c2ncsc2C(=O)Nc2ccc3c(c2)CCC(=O)N3)c1` [ALDHI-1013, 4-(m-tolyl)-N-(2-oxo-3,4-dihydro-1H-quinolin-6-yl)thiazole-5-carboxamide], the IC50 is at least 100 µM.
The same measure for `CC1(c2ccccc2)COCCN1CCOc1ccc2c(c1)CCC(=O)N2` (centres unmarked) [ALDHI-2040, 6-[2-(3-methyl-3-phenyl-morpholin-4-yl)ethoxy]-3,4-dihydro-1H-quinolin-2-one]: at least 100 µM; for `CCC1Oc2cc(OCCN3CCCC3c3cccc(F)c3)ccc2NC1=O` (centres unmarked) [ALDHI-2045, 2-ethyl-7-[2-[2-(3-fluorophenyl)pyrrolidin-1-yl]ethoxy]-4H-1,4-benzoxazin-3-one]: at least 100 µM; for `O=C1CCc2cc(OCCN3CC(F)(F)CC3c3cccc(F)c3)ccc2N1` (centres unmarked) [ALDHI-2053, 6-[2-[4,4-difluoro-2-(3-fluorophenyl)pyrrolidin-1-yl]ethoxy]-3,4-dihydro-1H-quinolin-2-one]: at least 100 µM.
In the case of `O=C1CCc2cc(OCCN3CC(F)CC3c3cccc(F)c3)ccc2N1` (centres unmarked) [ALDHI-2052, 6-[2-[4-fluoro-2-(3-fluorophenyl)pyrrolidin-1-yl]ethoxy]-3,4-dihydro-1H-quinolin-2-one] it was at least 100 µM; in that of `O=C1CCc2cc(OCCN3CCCC3c3cccnc3)ccc2N1` (centres unmarked) [ALDHI-2005, 6-[2-[2-(3-pyridyl)pyrrolidin-1-yl]ethoxy]-3,4-dihydro-1H-quinolin-2-one], at least 100 µM; in that of `O=C1CCc2cc(NC(=O)c3sc(N4CCOCC4)nc3-c3cccc(F)c3)ccc2N1` [ALDHI-1001, 4-(3-fluorophenyl)-2-morpholino-N-(2-oxo-3,4-dihydro-1H-quinolin-6-yl)thiazole-5-carboxamide], at least 100 µM.
The same measure for `O=C1CCc2cc(NC(=O)c3scnc3-c3cccs3)ccc2N1` [ALDHI-1023, N-(2-oxo-3,4-dihydro-1H-quinolin-6-yl)-4-(2-thienyl)thiazole-5-carboxamide]: at least 100 µM; for `Cc1ccc(C2CCCN2CCOc2ccc3c(c2)CCC(=O)N3)cn1` (centres unmarked) [ALDHI-2030, 6-[2-[2-(6-methyl-3-pyridyl)pyrrolidin-1-yl]ethoxy]-3,4-dihydro-1H-quinolin-2-one]: at least 100 µM; for `CC1(C)Oc2cc(OCCN3CCCC3c3cccc(F)c3)ccc2NC1=O` (centres unmarked) [ALDHI-2043, 7-[2-[2-(3-fluorophenyl)pyrrolidin-1-yl]ethoxy]-2,2-dimethyl-4H-1,4-benzoxazin-3-one]: at least 100 µM.
Compound `COc1cccc(C2CCCN2CCOc2ccc3c(c2)CCC(=O)N3)c1` (centres unmarked) [ALDHI-2034, 6-[2-[2-(3-methoxyphenyl)pyrrolidin-1-yl]ethoxy]-3,4-dihydro-1H-quinolin-2-one] showed a half-inhibitory concentration (IC50) of at least 100 µM.
In the case of `O=C1CCc2cc(NC(=O)c3ncsc3-c3ccsc3)ccc2N1` [ALDHI-1011, N-(2-oxo-3,4-dihydro-1H-quinolin-6-yl)-5-(3-thienyl)thiazole-4-carboxamide] it was at least 100 µM; in that of `O=C1COc2cc(OCCN3CCCC3c3cccc(F)c3)ccc2N1` (centres unmarked) [ALDHI-2009, 7-[2-[2-(3-fluorophenyl)pyrrolidin-1-yl]ethoxy]-4H-1,4-benzoxazin-3-one], at least 100 µM.

(Values after patent US20240174634A1, “Aldehyde Dehydrogenase Inhibitors and Their Therapeutic Use” (priority 2020, published 2024).)
